From patent EP2334184B1, “FUNGICIDAL MIXTURE, CONTAINING FENPROPIDIN AND PENCONAZOLE” (Syngenta Participations AG, priority 2008, dated 2010) come the findings set out here.

Structures are written as SMILES.

Data set [1] concerns rose varieties. In words: Crop safety trials in Holland during the winter / dark season. Format: in vivo. The method, then: The following trials were conducted in Holland during the winter period / dark season, when the total light radiation level is less than 2000 W/m^2 per day.
(§1) These treatments were applied to 8 different rose varieties, and phytotoxicity assessments made at 7 day intervals. A phytotoxicity score of greater than 2.0% indicates unacceptable phytotoxicity; a score of 1.0 to 2.0% is acceptable (but not ideal); a score of less than 1.0% is good.

Data set [2] relates to rose varieties. As to the kind of experiment: Crop safety trials in Holland in April (summer trials). The class given is in vivo. The following applies: Cv. Red Naomi. The protocol: as §1
Corresponding trials were conducted using selected treatments from table 9 above, in Holland in April, when the total light radiation level is above 2000 W/m^2 per day.

The mark [3] stands for this setting: Cv. Grand Prix, 7DAA1 (7 days after first application).
Where [4] appears, read: Cv. Grand Prix, <2000 W/m^2 per day, 0DAA0.

As to `CCCC(Cn1cncn1)c1ccc(Cl)cc1Cl` (stereo not drawn) [Treatment 8], the “Percentage phytotoxicity (%)” value in data set [1] (setting [3]) is reported as 0.0%; in data set [1] (Cv. Grand Prix, 7DAA2) it was 0.0%; in data set [1] (Cv. Grand Prix, 7DAA3), 1.3%; in data set [1] (Cv. Grand Prix, 14DAA3), 0.0%; in data set [1] (Cv. Grand Prix, 21DAA3), 0.0%; in data set [1] (setting [4]), 0.0%. Moreover, the “Percentage phytotoxicity (%)” value is recorded as 0.0% in data set [1] (Cv. Red Naomi, 0DAA0); 0.7% in data set [1] (Cv. Red Naomi, 6DAA2); 1.3% in data set [1] (Cv. Red Naomi, 7DAA1); 0.7% in data set [1] (Cv. Red Naomi, 7DAA3); 0.0% in data set [1] (Cv. Red Naomi, 18DAA3); 0.0% in data set [2] (7DAA1). In addition, the “Percentage phytotoxicity (%)” value in data set [2] (7DAA2) is recorded as 0.0%; in data set [2] (7DAA3), 0.0%; in data set [2] (14DAA3), 0.0%; in data set [2] (>2000 W/m^2 per day, 0DAA0), 0.0%.
On to `CCCC(Cn1cncn1)c1ccc(Cl)cc1Cl` (stereo not drawn) [Treatment 9], for which the “Percentage phytotoxicity (%)” value in data set [1] (setting [3]) is recorded as 0.0%; in data set [1] (Cv. Grand Prix, 7DAA2), 0.0%; in data set [1] (Cv. Grand Prix, 7DAA3), 4.0%; in data set [1] (Cv. Grand Prix, 14DAA3), 2.0%; in data set [1] (Cv. Grand Prix, 21DAA3), 0.3%; in data set [1] (setting [4]) it was 0.0%. Besides, the “Percentage phytotoxicity (%)” value turned out to be 0.0% in data set [1] (Cv. Red Naomi, 0DAA0); 1.7% in data set [1] (Cv. Red Naomi, 6DAA2); 2.7% in data set [1] (Cv. Red Naomi, 7DAA1); 3.0% in data set [1] (Cv. Red Naomi, 7DAA3); 0.7% in data set [1] (Cv. Red Naomi, 18DAA3).
